Measurements as given in patent US20220226321A1, “INHIBITOR OF MNK FOR THE TREATMENT OF NEUROPATHIC PAIN” (Board of Regents, The University of Texas System, priority 2019, published 2022).

System: Nav1.8-positive nociceptors
Assay type: in vivo, mouse
Settings: Nav1.8-TRAP after paclitaxel

CC(=O)O[C@H]1C(=O)[C@@]2(C)[C@H]([C@H](OC(=O)c3ccccc3)[C@]3(O)C[C@H](OC(=O)[C@H](O)[C@@H](NC(=O)c4ccccc4)c4ccccc4)C(C)=C1C3(C)C)[C@]1(OC(C)=O)CO[C@@H]1C[C@@H]2O [paclitaxel]
Log2FC 0st4: 1.718 | Log2FC 2010107E04Rik: 2.12 | Log2FC 2310039H08Rik: 5.143 | Log2FC 2700094K13R1k: 3.302 | Log2FC 4833439L19R1k: 2.132 | Log2FC Aars2: 2.418 | Log2FC Acadvl: 1.927 | Log2FC Acap3: 3.498 | Log2FC Acp1: 1.942 | Log2FC Adamts8: 3.561 | Log2FC Adcy6: 2.711 | Log2FC Alkbh3: 6.476 | Log2FC Amacr: 2.955 | Log2FC Amd1: 3.371 | Log2FC Amer2: 2.706 | Log2FC Anapc13: 3.575 | Log2FC AngptI2: 2.189 | Log2FC Ankrd13b: 2.385 | Log2FC Anxa5: 1.873 | Log2FC Ap2m1: 1.802 | Log2FC Apip: 3.746 | Log2FC Arl3: 1.891 | Log2FC Arl6: 2.816 | Log2FC Arpc1b: 2.309 | Log2FC Asna1: 2.939 | Log2FC Atg4c: 2.347 | Log2FC Atp5c1: 2.208 | Log2FC Atp5j2: 1.988 | Log2FC Avpi1: 2.241 | Log2FC Bcl3: 1.89 | Log2FC Bloc1s1: 1.944 | Log2FC Btbd2: 1.76 | Log2FC C77080: 2.169 | Log2FC Calca: 1.643 | Log2FC Camk1: 1.856 | Log2FC Caml: 1.865 | Log2FC Card19: 1.753 | Log2FC Casp6: 5.72 | Log2FC Ccm2: 1.643 | Log2FC Cct3: 1.638 | Log2FC Cd1d1: 3.345 | Log2FC Cdc42ep3: 3.249 | Log2FC Cdpf1: 1.815 | Log2FC Cenpf: 2.902 | Log2FC Cfap206: 3.055 | Log2FC Cfd: 2.201 | Log2FC Chchd10: 3.153 | Log2FC Chp1: 1.916 | Log2FC Cisd2: 2.375 | Log2FC Cln5: 3.447 | Log2FC Cnih4: 1.926 | Log2FC Cnrip1: 2.136 | Log2FC Cntfr: 2.495 | Log2FC Coq3: 4.105 | Log2FC Cox6b1: 1.818 | Log2FC Cox7a2: 2.17 | Log2FC Cox7b: 2.566 | Log2FC Cox18: 2.806 | Log2FC Crlf2: 3.214 | Log2FC DIg2: 2.734 | Log2FC Dad1: 2.457 | Log2FC Ddt: 1.823 | Log2FC Ddx59: 3.577 | Log2FC Dhrs1: 1.833 | Log2FC Dnajb1: 1.888 | Log2FC Dnajc5: 1.672 | Log2FC Dnal4: 3.156 | Log2FC Dolk: 3.023 | Log2FC Dpm3: 2.927 | Log2FC Dzank1: 2.226 | Log2FC Edfl: 2.362 | Log2FC Efccl: 3.201 | Log2FC Eif3l: 1.622 | Log2FC Eif4a3: 2.269 | Log2FC Elk4: 1.928 | Log2FC Emd: 2.135 | Log2FC Endov: 2.652 | Log2FC Esd: 1.658 | Log2FC Esyt1: 3.657 | Log2FC Fabp7: 2.365 | Log2FC Fads3: 2.619 | Log2FC Fam89a: 3.216 | Log2FC Fam132a: 3.453 | Log2FC Fam172a: 2.094 | Log2FC Fam189b: 1.8 | Log2FC Fbxo2: 2.965 | Log2FC Fkbp1b: 1.714 | Log2FC Fm43b: 4.132 | Log2FC Fsd1: 3.044 | Log2FC Fxyd2: 1.653 | Log2FC Gdf1: 2.419 | Log2FC Gla: 1.793 | Log2FC Gm20721: 2.093 | Log2FC Gmppa: 2.033 | Log2FC Gpr75: 3.81 | Log2FC Gstm1: 3.155 | Log2FC H2-T23: 3.904 | Log2FC H2afj: 2.76 | Log2FC H2afz: 1.717 | Log2FC Hagh: 3.067 | Log2FC Hhatl: 3.915 | Log2FC Hist3h2ba: 2.223 | Log2FC Hspa8: 1.666 | Log2FC Idh3b: 1.905 | Log2FC Ift122: 2.378 | Log2FC Igtp: 2.41 | Log2FC Kcnip2: 2.308 | Log2FC Kcnip4: 1.68 | Log2FC Krt28: 5.481 | Log2FC L3mbt12: 1.691 | Log2FC Lamtor5: 1.975 | Log2FC Lcmt1: 1.712 | Log2FC Lingo2: 2.247 | Log2FC Litaf: 2.888 | Log2FC Lrrc55: 5.433 | Log2FC Lxn: 2.119 | Log2FC Lyrm2: 2.832 | Log2FC M pl36: 2.805 | Log2FC Mok: 7.257 | Log2FC Mpp4: 3.465 | Log2FC Mpv17: 1.73 | Log2FC Mrpl18: 1.683 | Log2FC Mrpl34: 2.378 | Log2FC Mrpl42: 1.785 | Log2FC Mrps36: 2.585 | Log2FC Mtor: 1.973
